Experimental data reported in PMC6112376, “Comprehensive Analyses and Prioritization of Tox21 10K Chemicals Affecting Mitochondrial Function by in-Depth Mechanistic Studies” (Environmental Health Perspectives, 2018).
Read-outs that look alike come from different tables or passages of the source.

Assays:
[1] = tested on: hNSC; experiment: MMP assay in human neural stem cells (hNSC); format: cell-based; settings: Homo sapiens, Neural stem cell; 1 h treatment; fresh re-sourced stocks; mean±SD of three experiments; read-out: hNSC IC50 (MMP)
[2] = tested on: HepG2 cells; experiment: ROS-Glo hydrogen peroxide (ROS) assay; format: cell-based, human; settings: Homo sapiens, HepG2; 2 h treatment; mean±SD of three experiments; read-out: ROS (HepG2) EC50
[3] = tested on: HepG2 cells; experiment: Intracellular ATP content (cell viability) assay; format: cell-based, human; settings: 40 h treatment, mean±SD of three experiments; for ATP (HepG2, glucose) IC50: 5 mM glucose; for ATP (HepG2, galactose) IC50: 10 mM galactose
[4] = tested on: Nrf2/ARE (ARE-bla HepG2 cells); experiment: ARE β-lactamase reporter gene assay; format: cell-based, human; settings: Homo sapiens, HepG2; 16 h incubation; mean±SD of three experiments; read-out: ARE (HepG2) EC50
[5] = tested on: isolated rat liver mitochondria; experiment: Oxygen consumption, Clark-type oxygen electrode; format: biochemical; settings: for I-ADP, % of control (O2 consumption rate): glutamate/malate driven state 3 respiration; for I-ADP, % of control (O2 consumption rate) / I-sub, % of control (O2 consumption rate) / II-ADP, % of control (O2 consumption rate) / II-sub, % of control (O2 consumption rate): isolated rat liver mitochondria; for I-sub, % of control (O2 consumption rate): glutamate/malate driven state 4 respiration; for II-ADP, % of control (O2 consumption rate): succinate-driven state 3 respiration; for II-sub, % of control (O2 consumption rate): succinate-driven state 4 respiration; for Potential Mechanism: mitochondrial respiration in isolated rat liver mitochondria, Clark type oxygen electrode, over tested concentrations
[6] = tested on: HeLa cells expressing YFP-Parkin; experiment: Parkin translocation assay; format: cell-based, human; settings: HeLa cells stably expressing YFP-Parkin; treated for 2 h
[7] = tested on: HepG2 cells; settings: cited from earlier work
[8] = tested on: HepG2 cells; experiment: cells; settings: Homo sapiens; for Emax: HepG2, read-out: MMP assays efficacy (%) HepG2
[9] = tested on: Caenorhabditis elegans strain PE255; experiment: In vivo C. elegans ATP status assay; settings: for minimal effective concentration: Caenorhabditis elegans, read-out: LEC LUM: lowest effect concentration for luminescence, a measure of nematode ATP content
[10] = tested on: rat primary hepatocytes; experiment: MMP assay in rat primary hepatocytes; settings: for Rat hepatocytes (efficacy) (MMP): % of positive control, mean±SD of three experiments; for IC50: Rattus norvegicus, Hepatocyte; for MMP assays efficacy (%) Rat Hepatocytes: mean ± SD of three experiments
[11] = tested on: Caenorhabditis elegans (Bristol N2); experiment: C. elegans larval development and growth assay
[12] = HepG2, 1 h, read-out: HepG2 IC50 Galactose (MMP)
[13] = HepG2, 1 h, read-out: HepG2 IC50 Glucose (MMP)
[14] = HepG2, read-out: MMP assays IC50 (µM) HepG2
[15] = 1 h, read-out: Rat hepatocytes IC50 (MMP)
[16] = read-out: MMP assays IC50 (µM) Rat Hepatocytes

## NNc1nc(-c2ccccc2)cs1 [2-Hydrazino-4-phenylthiazole]
[1]
  IC50: 14.2 ± 2.56 µM
[2]
  EC50: 34.5 ± 28.8 µM
[3]
  ATP (HepG2, glucose) IC50: Inactive
  ATP (HepG2, galactose) IC50: Inactive
[4]
  EC50: 6.92 ± 1.73 µM
[5]; 100 µM
  I-ADP, % of control (O2 consumption rate): 94 (50.2) % of control
  I-sub, % of control (O2 consumption rate): 119 (16.0) % of control
  II-ADP, % of control (O2 consumption rate): 88 (59.2) % of control
  II-sub, % of control (O2 consumption rate): 99 (21.4) % of control
[5]
  Potential Mechanism: Inactive
[6]
  Parkin recruitment: Inactive
[7]
  MMP assays efficacy (%) qHTS-HepG2: -118±14%
[7]; read-out: MMP assays IC50 (µM) qHTS-HepG2
  IC50: 2.32 ± 0.79 µM
[8]; [12]
  IC50: 48.2 ± 17.5 µM
[8]; [13]
  IC50: 37.1 ± 6.33 µM
[8]; [14]
  IC50: 10 µM
[8]
  Emax: 103%
[9]
  minimal effective concentration: 25 µM
[10]
  Rat hepatocytes (efficacy) (MMP): −57.1±16.9%
  MMP assays efficacy (%) Rat Hepatocytes: -81±30%
[10]; [15]
  IC50: 54.7 ± 21.1 µM
[10]; [16]
  IC50: 21.5 ± 17.6 µM
[11]; 48 h exposure
  LEC (lowest effect concentration), larval growth assay: ≤ 10 µM
[11]; Caenorhabditis elegans, read-out: LEC EXT: lowest effect concentration for extinction, a measure of nematode size
  minimal effective concentration: 10 µM

## O=C(O)c1cccnc1Nc1cccc(C(F)(F)F)c1 [Niflumic acid, reference compound]
[1]
  IC50: 38.3 ± 4.41 µM
[2]
  EC50: 6.35 ± 2.16 µM
[3]
  ATP (HepG2, glucose) IC50: Inactive
  ATP (HepG2, galactose) IC50: Inactive
[4]
  EC50: 25.1 ± 2.05 µM
[5]; 0.032 µM
  I-ADP, % of control (O2 consumption rate): 91 (32.6) % of control
  I-sub, % of control (O2 consumption rate): 116 (11.1) % of control
  II-ADP, % of control (O2 consumption rate): 90 (48.1) % of control
  II-sub, % of control (O2 consumption rate): 110 (18.1) % of control
[5]; 0.16 µM
  I-ADP, % of control (O2 consumption rate): 82 (29.2) % of control
  I-sub, % of control (O2 consumption rate): 111 (10.7) % of control
  II-ADP, % of control (O2 consumption rate): 101 (54.0) % of control
  II-sub, % of control (O2 consumption rate): 124 (20.4) % of control
[5]; 0.8 µM
  I-ADP, % of control (O2 consumption rate): 91 (32.5) % of control
  I-sub, % of control (O2 consumption rate): 131 (12.6) % of control
  II-ADP, % of control (O2 consumption rate): 89 (47.6) % of control
  II-sub, % of control (O2 consumption rate): 135 (22.1) % of control
[5]; 4 µM
  I-ADP, % of control (O2 consumption rate): 86 (30.8) % of control
  I-sub, % of control (O2 consumption rate): 180 (17.3) % of control
  II-ADP, % of control (O2 consumption rate): 96 (51.1) % of control
  II-sub, % of control (O2 consumption rate): 221 (36.2) % of control
[5]; 20 µM
  I-ADP, % of control (O2 consumption rate): 101 (36.0) % of control
  I-sub, % of control (O2 consumption rate): 380 (36.5) % of control
  II-ADP, % of control (O2 consumption rate): 54 (28.9) % of control
  II-sub, % of control (O2 consumption rate): 195 (32.0) % of control
[5]; 100 µM
  I-ADP, % of control (O2 consumption rate): 70 (32.1) % of control
  I-sub, % of control (O2 consumption rate): 234 (36.2) % of control
  II-ADP, % of control (O2 consumption rate): 23 (16.4) % of control
  II-sub, % of control (O2 consumption rate): 56 (17.7) % of control
[5]
  Potential Mechanism: Uncoupler at low concentrations (0.16-4 µM), and Uncoupler + inhibitor at high concentrations ( 20-100 µM)
[6]
  Parkin recruitment: Inactive
[7]
  MMP assays efficacy (%) qHTS-HepG2: -113±5%
[7]; read-out: MMP assays IC50 (µM), qHTS-HepG2
  IC50: 13 ± 2.17 µM
[8]; [12]
  IC50: 42.8 µM
[8]; [13]
  IC50: 44.6 ± 3.02 µM
[8]; [14]
  IC50: 15.5 µM
[8]
  Emax: 114%
[9]; 0.5–100μM, 24 h exposure
  effect on ATP content (in words): statistically significant decreases in ATP content
[9]
  minimal effective concentration: 100 µM
[10]
  Rat hepatocytes (efficacy) (MMP): −98.8±9.27%
  MMP assays efficacy (%) Rat Hepatocytes: -127±56%
[10]; [15]
  IC50: 19.9 ± 1.35 µM
[10]; [16]
  IC50: 6.71 ± 1.14 µM
[11]; 0.5–100μM, 48 h exposure
  effect on larval growth (in words): did not affect growth
